Experimental data: ChEMBL document CHEMBL1125329, “4-Oxospiro[benzopyran-2,4'-piperidines] as class III antiarrhythmic agents. Pharmacological studies on 3,4-dihydro-1'-[2-(benzofurazan-5-yl)- ethyl]-6-methanesulfonamidospiro[(2H)-1-benzopyran-2,4'-piperidin]-4-on e (L-691,121)” (J Med Chem, 1992)
pIC50: −log10 of the molar value.

Tests used:
[1] = biological target: T1, Alpha-1A adrenergic receptor (Bos taurus, UniProt P18130); assay: Compound was evaluated for binding affinity at bovine brain Alpha-1 adrenergic receptor in a filtration-based assay using [3H]prazosin as the radioligand
T1 sequence (P18130 whole entry): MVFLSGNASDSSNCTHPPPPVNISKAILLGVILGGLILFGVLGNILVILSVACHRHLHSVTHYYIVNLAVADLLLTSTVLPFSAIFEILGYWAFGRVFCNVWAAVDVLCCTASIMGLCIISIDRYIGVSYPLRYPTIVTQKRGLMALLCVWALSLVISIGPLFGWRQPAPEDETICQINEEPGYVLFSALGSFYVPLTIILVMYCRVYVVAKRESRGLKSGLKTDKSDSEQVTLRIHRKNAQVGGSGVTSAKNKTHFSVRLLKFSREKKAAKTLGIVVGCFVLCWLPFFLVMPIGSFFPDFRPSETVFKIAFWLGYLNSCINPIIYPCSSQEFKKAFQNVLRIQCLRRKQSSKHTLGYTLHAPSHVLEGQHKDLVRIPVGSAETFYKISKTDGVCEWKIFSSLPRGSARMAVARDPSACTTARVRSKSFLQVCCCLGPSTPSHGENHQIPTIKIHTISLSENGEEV

Mustela putorius furo = species: Mustela putorius furo; assay: Compound was evaluated for the molar concentration required to prolong effective refractory period (ERP) 25% above baseline in ferret isolated right ventricular papillary muscles using a paired pacing protocol; assay type: functional, Muscle tissue
Canis familiaris = assay: Compound was evaluated for the intravenous dose required to prolong relative refractory period (RRP) 20 ms above baseline in chloralose anesthetized dogs using a paired pacing protocol; assay type: functional; details: Canis lupus familiaris
[2] = biological target: T1, Alpha-1A adrenergic receptor; assay: Compound was evaluated for binding affinity at bovine brain Alpha-1 adrenergic receptor determined in a filtration-based assay using [3H]prazosin as the radioligand.

Row | SMILES | pIC50 [1] | EC25 (Mustela putorius furo) [nM] | ED20 (Canis familiaris) [µg/kg] | pIC50 [2]
1 | CS(=O)(=O)Nc1ccc(CCN2CCC3(CC2)CC(=O)c2cc(NS(C)(=O)=O)ccc2O3)cc1.Cl | 4.82 | 74 | 3 | –
2 | CS(=O)(=O)Nc1ccc2c(c1)C(=O)CC1(CCN(CCc3ccc(C#N)cc3)CC1)O2.Cl | 6.00 | 3 | 7 | –
3 | CS(=O)(=O)Nc1cccc2c1OC1(CCN(CCc3ccccn3)CC1)CC2=O.Cl.O | – | 7400 | – | –
4 | CS(=O)(=O)Nc1ccc2c(c1)C(=O)CC1(CCN(CCc3ccccc3)CC1)O2.Cl | 7.00 | 7 | 5 | –
5 | CS(=O)(=O)Nc1ccc2c(c1)CCC1(CCN(CCc3ccc4nonc4c3)CC1)O2.Cl | 5.52 | 54 | – | –
6 | CS(=O)(=O)Nc1ccc2c(c1)C(O)CC1(CCN(CCc3ccc4nonc4c3)CC1)O2.Cl (centres undefined) | 5.64 | 900 | 200 | –
7 | CS(=O)(=O)Nc1ccc2c(c1)C(=O)CC1(CCN(CCc3ccc([N+](=O)[O-])cc3)CC1)O2.Cl | – | 5 | – | 6.05
8 | Cl.O=C1CC2(CCN(CCc3ccccn3)CC2)Oc2ccccc21 | – | 160 | 500 | –
9 | CS(=O)(=O)Nc1ccc2c(c1)C(=O)CC1(CCN(CCc3ccccn3)CC1)O2.Cl.O | 6.30 | 33 | 10 | –
10 | CS(=O)(=O)Nc1ccc2c(c1)C(=O)CC1(CCN(CCc3ccc4nonc4c3)CC1)O2.Cl | – | 13 | 2.8 | –
11 | CS(=O)(=O)Nc1ccc2c(c1)OC1(CCN(CCc3ccccn3)CC1)CC2=O.Cl.O | – | 6600 | – | –
12 | Cc1cccc(CCN2CCC(C(=O)c3ccc(NS(C)(=O)=O)cc3)CC2)n1 | – | 58 | 17.4 | –
13 | CN(CCOc1ccc(NS(C)(=O)=O)cc1)CCc1ccc(NS(C)(=O)=O)cc1 [DOFETILIDE] | – | 18 | 5.2 | –
